Test results published in US20170304359A1, “ORAL IODINE DOSAGE FORM” (priority 2016, published 2017).

What was measured:
[1] = test system: MCF7, MDA-MB231, MCF10A, and primary cells; format: cell-based, human
[2] = Aceves et al. 2013; cited from earlier work
[3] = Aceves et al. 2013; cited from earlier work; remark: listed apart in the source
[4] = test system: breast cancer and fibrocystic cell lines; assay: qRT-PCR gene expression analysis; format: cell-based, human; settings: molecular iodine treatment
Procedure: An in vitro study was performed to assess the effect of molecular iodine in breast cancer and fibrocystic breast cell lines relative to the effects in human mammary epithelial cells (HMEC)(“primary cells”). The study measured gene expression for key markers in each of the cell lines following in vitro addition to the cells of cell media mixtures that comprised iodine species.
As mentioned in the previous paragraph, each of the four cell lines described in the previous paragraph was added to a sample of each of the six cell media mixtures CM1 to CM6. As an untreated control, one sample for each cell line was mixed with media only. Real-time reverse transcription polymerase chain reaction (qRT-PCR) was used to measure several key mRNA markers for apoptosis and cell growth in breast tissue for each combination of cell line and cell media mixture. The measured markers for cell growth were Cyclin D1, Cyclin E1, Cyclin B1, CDK2, and CDKN1B. The measured markers for apoptosis were BCL2 and Caspase 3. Cyclin D1 is required for progression through the G1 phase of the cell cycle. Cyclin E1 is required for cell cycle G1/S transition. Cyclin B1 is involved in the early events of mitosis, such as chromosome condensation, nuclear envelop breakdown, and spindle pole assembly. CDK2 is required for the transition from G1 to S phase and binding with Cyclin A is required to progress through the S phase. CDKN1B binds to and prevents the activation of cyclin E-CDK2 or Cyclin D-CDK4 complexes, and thus controls the cell cycle progression at G1. BCL2 plays an important role in promoting cellular survival and inhibiting the actions of pro-apoptotic proteins. Caspase 3 plays a central role in the execution phase of cell apoptosis. […] Table 4 presents the data normalized to the corresponding data for the primary cells when added to CM6.
BCL-2, an inhibitor of cell death, was increased, while expression of caspase-3 was decreased.

[5] = test system: fibrocystic breast condition; settings: about 3 to about 12 mg of molecular iodine per day; clinical trials (Kessler 2004; Ghent 1993); cited from earlier work

With [I-].[K+] [CM3, potassium iodide, reference compound] the “selectivity for apoptosis and cell proliferation between cancerous or fibrocystic cells and healthy human mammary epithelial cells” value [1] was “not present”.

In the case of II [molecular iodine], the “uptake difference between molecular iodine and iodide in the breast” value [2] is given as “small uptake difference”, the “susceptibility of breast cancer cell lines compared to primary cells (cell death)” value ([1]; 24 hours, FIG. 3) is given as “more susceptible” and the “difference in uptake in the thyroid between molecular iodine and iodide” value [3] is given as 3-4 fold. The “effects on cell growth in both breast cancer and FBC” value [4] was “potent inhibitory effects”, the BCL-2 expression ([4]; quantitative RT-PCR) was “increased” and the “Cyclin B expression levels” value ([4]; quantitative RT-PCR) was “No significant changes”. The “expression of caspase-3” value ([4]; quantitative RT-PCR) was “decreased”, the “expression of cell cycle genes controlling G1-S phase transition” value ([4]; quantitative RT-PCR) was “largely up-regulated” and the “expression of nuclear hormone receptor PPAR-α” value ([4]; quantitative RT-PCR) was “up-regulated”. For the same compound, the “expression of nuclear hormone receptor PPAR-γ” value ([4]; quantitative RT-PCR) was “up-regulated” and the “treatment of fibrocystic breast condition” value [5] was “effective”.
